Measured values published in PubChem BioAssay AID540252 (Sanford-Burnham Center for Chemical Genomics, 2011).
Calls of active or inactive are those of the source. The rule behind the calls is not given here.

Target: glucose-6-phosphate dehydrogenase-6-phosphogluconolactonase (Plasmodium falciparum 3D7)
Assay: PfG6PD enzyme inhibitors, direct NADPH readout, dose response, orthogonal assay, biochemical, end-point NADPH detection (AID 540252)
Settings: purified PfG6PD enzyme

Structure (SMILES) | IC50
Nc1[nH]c(=O)[nH]c(=O)c1N=Cc1ccccc1 | > 80 µM (inactive)
O=C(CBr)c1ccc([N+](=O)[O-])c(CS(=O)(=O)c2ccc(Cl)cc2)c1 | 42.5 µM
Cc1ccc(-n2c(N)c(C(=O)N3CCN(C)CC3)sc2=S)cc1 | 55.2 µM
CCOC(=O)Cc1csc(-n2sc3ccccc3c2=O)n1 | > 80 µM (inactive)
CC(C)Nc1ccc(Nc2ccccc2)cc1 | > 80 µM (inactive)
C=CCOc1ccc(CNc2ccc3[nH]c(=O)[nH]c3c2)cc1OC | > 80 µM (inactive)
O=C(Nc1sc2c(c1C(=O)O)CCC2)c1ccc(F)cc1 | > 80 µM (inactive)
CCN=c1scc(C)n1/N=C/c1ccc(O)c(O)c1O | > 80 µM (inactive)
O=C1Nc2ccccc2C(=O)C1(Cl)Cc1ccccc1 (stereo not drawn) | > 80 µM (inactive)
COC(=O)c1cc2c(n1S(=O)(=O)c1ccc(C)cc1)C(=O)C(=O)c1[nH]cc(C(=O)OCc3ccccc3)c1-2 | > 80 µM (inactive)
CC1CCc2c(nc3sc4c(c3c2N)CCCC4)C1 (stereo not drawn) | > 80 µM (inactive)
CCS(=O)(=O)N1CCN(c2ccc([N+](=O)[O-])c(NC(C)c3ccccc3)c2)CC1 (stereo not drawn) | > 80 µM (inactive)
NS(=O)(=O)c1ccc(N/N=C/c2ccc(O)c(O)c2O)c([N+](=O)[O-])c1 | 36.3 µM
O=C(CNC(=O)c1cccs1)OCC(=O)c1ccc([N+](=O)[O-])cc1 | 62.5 µM
CC1CN(c2ccccc2)NC1=O (stereo not drawn) | > 80 µM (inactive)
CCOC(=O)c1ccc(/[N+]([O-])=C/c2ccccc2)cc1 | > 80 µM (inactive)
COC1=C(Br)C(=O)c2nc(C)ccc2C1=O | > 80 µM (inactive)
CN1CCc2cc(O)cc3c2[C@H]1Cc1ccc(O)c(O)c1-3 | > 80 µM (inactive)
Cc1ccc(NC(=O)c2cc(N3C(=O)C=CC3=O)ccc2N2CCOCC2)cc1Cl | > 80 µM (inactive)
COc1cc(Sc2ccc(C)cc2)c(OC)cc1N | > 80 µM (inactive)
Cc1ccc(S(=O)c2ccc([N+](=O)[O-])c3nonc23)cc1 (stereo not drawn) | 60 µM
COc1cc(CN2CCCC(C(=O)c3ccc4c5c(cccc35)CC4)C2)cc(OC)c1O (stereo not drawn) | > 80 µM (inactive)

Structure (SMILES) | IC50
NCCc1cc(O)c(O)cc1O | > 80 µM (inactive)
O=C(O)CSc1cc(NS(=O)(=O)c2cccc([N+](=O)[O-])c2)c2ccccc2c1O | > 80 µM (inactive)
NC1CCc2cc(O)c(O)cc2C1 (stereo not drawn) | 27.5 µM
O=C(O)c1cc(N2C(=O)C=CC2=O)cc(N2C(=O)C=CC2=O)c1 | 18.9 µM
O=c1c2cc(F)ccc2sn1-c1ccccc1Cl | 13.8 µM
Cc1ccccc1OCC(=O)NCC(=O)OCC(=O)c1ccc([N+](=O)[O-])cc1 | 50.1 µM
NCCNc1ccc(C(=O)N2c3ccccc3Sc3ccccc32)cc1[N+](=O)[O-] | 13.2 µM
COc1ccc(CN(C)S(=O)(=O)c2nnc(NC(=O)c3cccc(C)c3)s2)cc1OC | > 80 µM (inactive)
COc1ccc(S(=O)(=O)Nc2cc(SCC(=O)O)c(O)c3ccccc23)cc1 | > 80 µM (inactive)
O=c1c2ccccc2sn1-c1nccs1 | 26.2 µM
CN1CCc2cccc3c2[C@H]1Cc1ccc(O)c(O)c1-3 | > 80 µM (inactive)
COc1ccc(NC(=S)N(CCC(C)C)C2CCN(C(C)C)CC2)cc1Cl | > 80 µM (inactive)
Cc1ccc(-n2sc3ccccc3c2=O)cc1 | 24.8 µM
CCOC(=O)c1c(OCC)[nH]c2c1cc(O)c1ccccc12 | > 80 µM (inactive)
CCN1CCN(C(=S)c2ccc(Cl)c(Cl)c2)CC1 | > 80 µM (inactive)
CN(C)c1ccc(/C=C/c2ccc3c4ccccc4ccc3[n+]2-c2ccccc2)cc1 | > 80 µM (inactive)
O=C1C=C(NCCc2cc(Br)c(O)c(Br)c2)C(=O)c2ncccc21 | > 80 µM (inactive)
O=S(=O)(Nc1cc(Sc2ncn[nH]2)c(O)c2ccccc12)c1ccccc1 | > 80 µM (inactive)
S=c1ncc2[nH]c(=S)[nH]c2[nH]1 | 60.5 µM
CC(=O)OCC1(C)CN(c2ccccc2)NC1=O (stereo not drawn) | > 80 µM (inactive)
Cc1ccc2nc3sc(C(=O)N4CCOCC4)c(N)c3cc2c1 | > 80 µM (inactive)
